# ChEMBL document CHEMBL4813989, “Design, synthesis, and biological evaluation of nitroisoxazole-containing spiro[pyrrolidin-oxindole] derivatives as novel glutathione peroxidase 4/mouse double minute 2 dual inhibitors that inhibit breast adenocarcinoma cell proliferation” (Eur J Med Chem, 2021)
# Calls of active or inactive are those of the source. The calls are words filed in the database; no cut-off is given here.
# Columns and labels:
# MCF7 [1] = test: Induction of apoptosis in human MCF7 cells assessed as viable cells at 0.1 uM incubated for 48 hrs by annexin-V-FITC and PI staining based flow cytometry analysis (reference value: 93.1 %); assay type: functional; conditions: read-out: Activity
# MCF7 [2] = test: Induction of ROS production in human MCF7 cells at 1 uM by DCFH-DA assay; assay type: functional, cell-based
# MCF7 [3] = test: Antiproliferative activity against human MCF7 cells assessed as reduction in cell growth incubated for 48 hrs in presence of Fer-1 by CCK8 assay; conditions: MCF7, 48 h
# MCF7 [4] = test: Induction of apoptosis in human MCF7 cells assessed as necrotic cells at 0.1 uM incubated for 48 hrs by annexin-V-FITC and PI staining based flow cytometry analysis (reference value: 3.21 %); assay type: functional
# MCF7 [5] = test: Induction of LPO production in human MCF7 cells at 1 uM in presence of Fer-1 by C11-BODIPY staining based confocal laser scanning microscopic analysis; assay type: functional, cell-based
# MCF7 [6] = test: Induction of apoptosis in human MCF7 cells assessed as increase in cleaved caspase-9 level at 2 uM incubated for 48 hrs by Western blot analysis; assay type: functional, cell-based
# MCF7 [7] = test: Induction of apoptosis in human MCF7 cells assessed as necrotic cells at 1 uM incubated for 48 hrs in presence of Fer-1 by annexin-V-FITC and PI staining based flow cytometry analysis (reference value: 3.21 %); assay type: functional
# [8] = Toxicity in BALB/c mouse xenografted with human MCF7 cells assessed as effect on body weight at 25 to 50 mg/kg, ip administered once for 17 days; assay type: organism-based; conditions: in vivo, 408 h, dose 25-50 mg/kg, time 17 day
# MCF7 [9] = test: Induction of apoptosis in human MCF7 cells assessed as late apoptotic cells at 1 uM incubated for 48 hrs by annexin-V-FITC and PI staining based flow cytometry analysis (reference value: 2.61 %); assay type: functional
# MCF7 [10] = test: Induction of apoptosis in human MCF7 cells assessed as early apoptotic cells at 0.5 uM incubated for 48 hrs by annexin-V-FITC and PI staining based flow cytometry analysis (reference value: 1.05 %); assay type: functional
# [11] = target: T1, E3 ubiquitin-protein ligase Mdm2 (Homo sapiens, UniProt Q00987); test: Inhibition of MDM2 in human MCF7 cells assessed as increase in MDM2 accumulation at 0.5 to 2 uM incubated for 48 hrs by Western blot analysis; assay type: cell-based; conditions: dose 0.5-2 µM
# Target sequence in this assay (Q00987 whole entry, looked up): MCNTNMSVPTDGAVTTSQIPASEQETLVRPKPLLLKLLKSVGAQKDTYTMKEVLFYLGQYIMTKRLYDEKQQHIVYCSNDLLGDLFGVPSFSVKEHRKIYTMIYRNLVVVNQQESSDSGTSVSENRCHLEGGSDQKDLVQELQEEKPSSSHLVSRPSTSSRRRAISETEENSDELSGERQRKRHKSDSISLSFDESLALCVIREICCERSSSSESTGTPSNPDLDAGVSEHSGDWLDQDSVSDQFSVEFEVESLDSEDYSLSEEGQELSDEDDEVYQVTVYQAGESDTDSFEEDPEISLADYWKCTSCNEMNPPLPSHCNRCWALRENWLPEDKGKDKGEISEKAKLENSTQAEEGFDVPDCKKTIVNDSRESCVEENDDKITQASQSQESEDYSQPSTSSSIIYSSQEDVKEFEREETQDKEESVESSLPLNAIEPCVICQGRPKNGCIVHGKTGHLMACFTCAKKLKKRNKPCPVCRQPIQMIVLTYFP
# MCF7 [12] = test: Antiproliferative activity against human MCF7 cells assessed as reduction in cell growth incubated for 48 hrs by CCK8 assay; conditions: MCF7, 48 h
# MCF7 [13] = test: Induction of apoptosis in human MCF7 cells assessed as early apoptotic cells at 1 uM incubated for 48 hrs in presence of Fer-1 by annexin-V-FITC and PI staining based flow cytometry analysis (reference value: 1.05 %); assay type: functional
# MCF7 [14] = test: Induction of ROS production in human MCF7 cells at 1 uM in presence of Fer-1 by DCFH-DA assay; assay type: functional, cell-based
# MCF7 [15] = test: Induction of apoptosis in human MCF7 cells assessed as necrotic cells at 0.5 uM incubated for 48 hrs by annexin-V-FITC and PI staining based flow cytometry analysis (reference value: 3.21 %); assay type: functional
# MCF7 [16] = test: Induction of apoptosis in human MCF7 cells assessed as early apoptotic cells at 1 uM incubated for 48 hrs by annexin-V-FITC and PI staining based flow cytometry analysis (reference value: 1.05 %); assay type: functional
# MCF7 [17] = test: Induction of apoptosis in human MCF7 cells assessed as viable cells at 1 uM incubated for 48 hrs in presence of Fer-1 by annexin-V-FITC and PI staining based flow cytometry analysis (reference value: 93.1 %); assay type: functional; conditions: read-out: Activity
# MCF7 [18] = test: Induction of apoptosis in human MCF7 cells assessed as viable cells at 1 uM incubated for 48 hrs by annexin-V-FITC and PI staining based flow cytometry analysis (reference value: 93.1 %); assay type: functional; conditions: read-out: Activity
# MCF7 [19] = test: Induction of apoptosis in human MCF7 cells assessed as late apoptotic cells at 0.1 uM incubated for 48 hrs by annexin-V-FITC and PI staining based flow cytometry analysis (reference value: 2.61 %); assay type: functional
# MCF7 [20] = test: Induction of LPO production in human MCF7 cells at 1 uM by C11-BODIPY staining based confocal laser scanning microscopic analysis; assay type: functional, cell-based
# [21] = target: T1, E3 ubiquitin-protein ligase Mdm2; test: Inhibition of MDM2 in human MCF7 cells assessed as increase in p53 accumulation at 0.5 to 2 uM incubated for 48 hrs by Western blot analysis; assay type: cell-based; conditions: dose 0.5-2 µM
# Target sequence in this assay (Q00987 whole entry, looked up): as above
# MCF7 [22] = test: Induction of apoptosis in human MCF7 cells assessed as necrotic cells at 1 uM incubated for 48 hrs by annexin-V-FITC and PI staining based flow cytometry analysis (reference value: 3.21 %); assay type: functional
# MCF7 [23] = test: Induction of apoptosis in human MCF7 cells assessed as early apoptotic cells at 0.1 uM incubated for 48 hrs by annexin-V-FITC and PI staining based flow cytometry analysis (reference value: 1.05 %); assay type: functional
# [24] = target: T1, E3 ubiquitin-protein ligase Mdm2; test: Inhibition of MDM2 (unknown origin) using peptide as substrate incubated for 30 mins by fluorescence polarization assay
# Target sequence in this assay (Q00987 whole entry): as the sequence (Q00987 whole entry, looked up) above
# MCF7 [25] = test: Antitumor activity against human MCF7 cells xenografted in BALB/c mouse assessed as reduction in Ki-67 expression at 25 to 50 mg/kg, ip administered once for 17 days by immunohistochemical analysis; assay type: functional, organism-based; conditions: dose 25-50 mg/kg, time 17.0 day
# Mus musculus = test: In vivo induction of apoptosis in human MCF7 cells xenografted in BALB/c mouse assessed as increase in TUNEL expression at 25 to 50 mg/kg, ip administered once for 17 days by immunohistochemical analysis; assay type: functional, organism-based; conditions: dose 25-50 mg/kg, time 17.0 day
# [26] = target: E3 ubiquitin-protein ligase Mdm2 (Mus musculus) (UniProt P23804); test: In vivo inhibition of MDM2 in human MCF7 cells xenografted in BALB/c mouse assessed as increase in p53 expression at 25 to 50 mg/kg, ip administered once for 17 days by immunofluorescence analysis; assay type: functional, organism-based; conditions: dose 25-50 mg/kg, time 17.0 day
# [27] = target: T2, Phospholipid hydroperoxide glutathione peroxidase GPX4 (Homo sapiens) (UniProt P36969); test: Inhibition of GPX4 in human MCF7 cells assessed as increase in GPX4 degradation incubated for 48 hrs by Western blot analysis; assay type: cell-based; conditions: dose 0.1-2 µM
# T2 sequence (whole entry): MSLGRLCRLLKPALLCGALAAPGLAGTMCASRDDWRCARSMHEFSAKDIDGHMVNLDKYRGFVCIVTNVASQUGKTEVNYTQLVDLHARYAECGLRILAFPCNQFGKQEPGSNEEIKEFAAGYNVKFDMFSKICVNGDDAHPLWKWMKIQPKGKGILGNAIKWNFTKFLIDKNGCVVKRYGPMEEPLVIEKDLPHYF
# MCF7 [28] = test: Antitumor activity against human MCF7 cells xenografted in BALB/c mouse assessed as tumor growth inhibition at 25 to 50 mg/kg, ip administered once for 17 days; assay type: functional, organism-based; conditions: dose 25-50 mg/kg, time 17.0 day
# MCF-10A = test: Cytotoxicity against human MCF-10A cells assessed as reduction in cell viability incubated for 48 hrs by CCK8 assay; assay type: cell-based
# MCF7 [29] = test: Induction of apoptosis in human MCF7 cells assessed as late apoptotic cells at 0.5 uM incubated for 48 hrs by annexin-V-FITC and PI staining based flow cytometry analysis (reference value: 2.61 %); assay type: functional
# [30] = target: T2, Phospholipid hydroperoxide glutathione peroxidase GPX4 (Homo sapiens); test: Binding affinity in GPX4 in human MCF7 cells assessed as increase in stability in 60 and 65 degreeC at 100 uM by cellular thermal shift assay; assay type: cell-based
# MCF7 [31] = test: Induction of apoptosis in human MCF7 cells assessed as viable cells at 0.5 uM incubated for 48 hrs by annexin-V-FITC and PI staining based flow cytometry analysis (reference value: 93.1 %); assay type: functional; conditions: read-out: Activity
# MCF7 [32] = test: Induction of apoptosis in human MCF7 cells assessed as late apoptotic cells at 1 uM incubated for 48 hrs in presence of Fer-1 by annexin-V-FITC and PI staining based flow cytometry analysis (reference value: […] %); assay type: functional
# E3 ubiquitin-protein ligase Mdm2 (Mus musculus), sequence (P23804 whole entry): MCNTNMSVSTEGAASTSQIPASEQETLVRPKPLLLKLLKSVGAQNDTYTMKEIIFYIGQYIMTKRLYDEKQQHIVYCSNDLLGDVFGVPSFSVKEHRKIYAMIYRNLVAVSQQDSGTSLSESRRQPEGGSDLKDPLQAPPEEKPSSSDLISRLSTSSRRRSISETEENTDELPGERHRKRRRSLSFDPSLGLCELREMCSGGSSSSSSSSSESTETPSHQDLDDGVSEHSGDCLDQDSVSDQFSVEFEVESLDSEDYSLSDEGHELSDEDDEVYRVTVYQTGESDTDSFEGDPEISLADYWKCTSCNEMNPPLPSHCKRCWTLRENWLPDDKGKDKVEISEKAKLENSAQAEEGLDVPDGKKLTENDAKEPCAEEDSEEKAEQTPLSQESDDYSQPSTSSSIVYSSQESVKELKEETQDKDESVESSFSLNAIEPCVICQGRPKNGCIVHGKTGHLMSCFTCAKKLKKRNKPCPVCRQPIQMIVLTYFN
smiles,measurement,setting,value
Cc1noc([C@@H]2[C@@H](c3ccccc3)[C@H](C(F)(F)F)N[C@@]23C(=O)Nc2cc(Cl)ccc23)c1[N+](=O)[O-],viability at 0.1 µM,MCF7 [1],91.3%
same,Activity,MCF7 [2],Active
same,IC50,MCF7 [3],13.5 µM
same,Activity,MCF7 [4],4.51%
same,Activity,MCF7 [5],inactive
same,Activity,MCF7 [6],Active
same,Activity,MCF7 [7],3.35%
same,Activity,[8],Non-Toxic
same,Activity,MCF7 [9],4.91%
same,Activity,MCF7 [10],7.81%
same,inhibition,[11],Active
same,IC50,MCF7 [12],120 nM
same,Activity,MCF7 [13],7.98%
same,Activity,MCF7 [14],inactive
same,Activity,MCF7 [15],5.25%
same,Activity,MCF7 [16],11.3%
same,viability at 1 µM,MCF7 [17],84%
same,viability at 1 µM,MCF7 [18],81.2%
same,Activity,MCF7 [19],2.85%
same,Activity,MCF7 [20],Active
same,inhibition,[21],Active
same,Activity,MCF7 [22],2.61%
same,Activity,MCF7 [23],1.39%
same,Ki,[24],240 nM
same,Activity,MCF7 [25],Active
same,Activity,Mus musculus,Active
same,inhibition,[26],Active
same,inhibition,[27],Active
same,TGI,MCF7 [28],Active
same,Activity,MCF-10A,Non-Toxic
same,Activity,MCF7 [29],3.16%
same,Activity,[30],Active
same,viability at 0.5 µM,MCF7 [31],83.8%
same,Activity,MCF7 [32],4.71%
